{"source": "patent US8741843B2", "about": "“Compositions and methods for inducing angiogenesis” (priority 2006, dated 2014)", "key": {"[1]": {"test_system": "GRP78 receptor on endothelial cells", "assay": "Competitive binding of ADOPeps to GRP78 (anti-GRP78 antibody ELISA on endothelial cells)", "parameters": "species or system human", "conditions": "summary of 4 experiments", "experimental": "FIG. 19 is a graph depicting inhibition of binding (in percentages) of anti-GRP78 antibody to endothelial cells by increasing concentrations of ADOPep1, 2, and 3 peptides. Endothelial cells were incubated for 2 hours with increasing concentrations of ADOPeps, following which the cells were incubated for another 1 hour with the 2 μg/ml of anti-GRP78 antibody and the amount of bound antibody on EC was detected using an ELISA reader.\nEndothelial cells (20,000 per well) were seeded in 96 well plates for 24 hours in the presence of the complete medium. Plates were washed with PBS over night and rehydrated with PBS, 0.1% Na Azide and 5% FCS. ADOPep1, ADOPep2 and ADOPep3 were added to washed plates for 2 hours at room temperature at concentrations of 0.01, 0.1 and 1 microgram per ml. Anti-GRP78 antibody (goat polyclona IgG, Santa Cruz Biotechnology, Calif., USA) was added to the plates for 1 hour at room temperature at a concentration of 2 micrograms/ml per well. After washing, bound anti-GRP78 antibody was detected by incubation with anti-goat IgG Peroxidase conjugated (Jackson Immuneresearch Laboratories, PA, USA). After 5 washes with PBS-0.1% Tween 20, 100 μl/well of TMB+ Substrate-Chromogen (DAKOCytomation, CA, USA) was added for a maximum of 30 minutes. Reaction was stopped with 1N HCl. Color developed was determined by an ELISA reader at 450 nm."}, "ERK½": {"test_system": "ERK½", "assay": "ERK½ phosphorylation in endothelial cells under hypoxia (Western blot, densitometry)", "type": "cell-based, human", "conditions": "for ERK½ phosphorylation (in words): endothelial cells under hypoxia, 10 ng/ml", "experimental": "FIGS. 30a-b are Western blot analyses depicting induction of phosphorylation of ERK by ADoPep1 and Motif A. Endothelial cells under starvation conditions and 5 hours hypoxia were incubated for 5 (lanes 2 and 6), 20 (lanes 3 and 7), 30 (lanes 4 and 8) and 60 (lanes 5 and 9) minutes with 10 ng/ml ADoPep1 (Lanes 2-5) or Motif A (lanes 6-9) peptides or remained under hypoxia without a further incubation with a peptide (lane 1). After incubation, lysates were prepared, subject to SDS-PAGE and blotting on a nitrocellulose membrane. Western Blot analysis was performed using anti-Phospho ERK½ antibody. […] FIG. 30a—Experiment 1; FIG. 30b—Experiment 2. The percent adjusted volume as determined by a densitometric analysis software to compare net band densities was as follows: FIG. 30a, lane 1-4.5, lane 2-9.3, lane 3-13.7, lane 4-13.3, lane 5-11.2, lane 6-10.7, lane 7-12.4, lane 8-12.3 and lane 9-12.4; FIG. 30b, lane 1-4.21, lane 2-12.4, lane 3-12.5, lane 4-14.8, lane 5-10.9, lane 6-14.9, lane 7-9.8, lane 8-12.7 and lane 9-7.8.\nFIG. 31 is a Western blot analysis depicting the level of phosphorylated ERK (pERK) in endothelial cells activated for 20 minutes with ADOPep1 and motif A and inhibited by pERK-inhibitor peptide. Endothelial cells (from cord 1) under starvation conditions and 5 hours hypoxia were incubated with 10 ng/ml ADOPep1 (lanes 3 and 4) or motif A (lanes 1 and 2) peptides in the presence (lanes 2 and 4) or absence (lanes 1 and 3) of p-ERK-inhibitor peptide (Santa Cruz). For control, the endothelial cells under starvation conditions and 5 hours hypoxia (lane 5) were also incubated with the p-ERK-inhibitor peptide (lane 6). […] The percent adjusted volume as determined by a densitometric analysis software to compare net band densities was as follows: lane 1-19, lane 2-14, lane 3-14, lane 4-8.8, lane 5-11, lane 6-2.1.\nFIGS. 32a-b are Western blot analyses depicting the effect of ADOPeps on the level of phosphorylated ERK. Endothelial cells (EC) from cord 1 (FIG. 32a) or cord 2 (FIG. 32b) under hypoxia (5 hours) were incubated for 20 or 30 minutes with 10 ng/ml of AdoPep1, AdoPep2 and AdoPep3 or remained untreated (i.e., under hypoxia without any peptide). Western Blot analyses of samples cell lysates were performed with anti Phospho ERK antibody on nitrocellulose membranes. […] The percent adjusted volume as determined by a densitometric analysis software to compare net band densities was as follows: FIG. 32a, lane 1-11, lane 2-13, lane 3-11, lane 4-5, lane 5-11, lane 6-13, lane 7-17, lane 8-16.7; FIG. 32b, lane 1-17, lane 2-22, lane 3-19, lane 4-7, lane 5-8, lane 6-13, lane 7-14, lane 8-1."}, "endothelial cells [2]": {"test_system": "endothelial cells", "assay": "CoCl2-induced apoptosis of endothelial cells (Annexin-FITC/PI FACS)", "type": "cell-based, human", "conditions": "24 hours CoCl2 treatment, normoxia about 27%", "experimental": "FIGS. 33a-f are representative FACS analyses depicting a specific inhibition of hypoxia-induced apoptosis of endothelial cells by ADOPep1. Endothelial cells in Petri dishes were incubated for 24 hours with 5% FCS in supplement-free endothelial cell growth medium under normoxia (FIGS. 33a and d), exposed to 24 hours hypoxia (Figures c and f) or incubated under normoxia with 100 micromolar per 100,000 cells CoCl2 (FIGS. 33b and e), in the absence (FIGS. 33a-c) or presence (FIGS. 33d-f) of 10 ng/ml Adopep1 peptide (for 24 hours). Cells were trypsinized and immediately re-suspended in PBS with 5% FCS and 0.1% Na-azide. Samples containing 100,000 cells were tested for apoptosis using the Annexin-FITC (X axis) and propidium iodide (Y axis) kit (Bender Medsystems, Vienna, Austria), according to manufacturer's instructions. Results were analyzed by FACScan (Beckton Dickinson).\nFIG. 34 is a histogram depicting the FACS results of the experiments described in FIGS. 33a-f. Data represents average±SD of 2 experiments."}, "endothelial cells [3]": {"test_system": "endothelial cells", "assay": "Tube formation of endothelial cells on Cultrex Basement Membrane Extract", "type": "cell-based, human", "conditions": "10 ng/ml, 18 hours, starvation and normoxic conditions", "experimental": "FIG. 27 is a graph depicting induction of tube formation using AdoPep1 and Motif A (SEQ ID NO:7) but not the scrambled sROY peptide. Endothelial cells were incubated in media without supplements for 24 hours, and 50,000 cells were then transferred in 500 μl medium to 24-well plates precoated with 250 μl Cultrex Basement Membrane Extract (with reduced growth factors) (R&D Systems, Minneapolis, Minn., USA). AdoPep1, Motif A and scrambled sROY peptides were added at an optimal concentration of 10 ng/ml (based on preliminary findings), and the slides were examined by light microscopy after 18 hours incubation. The results represent average±SD of three experiments using 3 different cords. The length of the network of connected cells (tube formation) was measured in micrometers in 5 different areas of each well using Image-Pro Plus Image software (Media Cybernetics, Silver Spring, Md., USA)."}, "[4]": {"test_system": "endothelial cells (HUVEC)", "assay": "Proliferation of endothelial cells under hypoxia ([H3]Thymidine incorporation)", "type": "cell-based, human", "conditions": "24 hours starvation, 10 ng/ml", "experimental": "FIG. 5 is a graph depicting cell proliferation as a function of ADOPeps' concentration. Proliferation of endothelial cells (EC) under hypoxia conditions was measured by [H^3]Thymidine incorporation. Endothelial cells (12,000/well) in minimal growth medium were incubated for 24 hours in the presence of 1, 10 and 100 ng/ml of ADOPep1 (SEQ ID NO:2; red diamonds), 2 (SEQ ID NO:3; blue squares) and 3 (SEQ ID NO:4; green triangles) peptides.\nHUVEC from passage 3 were used for proliferation experiments. Endothelial cells (15,000 cells/well) were seeded on 24-wells in the presence of endothelial cell growth medium (Promocell, Heidelberg, Germany) with supplements and incubated for 24 hours. After then, cells were exposed to 24 hours starvation in a medium free of supplements. ADOPeps were added at concentrations of 1, 10 and 100 ng/ml for 24 hours under hypoxic conditions. 2 μCi/well of Thymidine (SIGMA, Rehovot Israel) were added or over night incubation followed by 3 washes with PBS before harvesting at 37° C. with 300 μl/well of 0.5 M NaOH. Cell lysates were transferred to scintillation vials with 2 ml scintillation liquid Ultima Gold (Packard Bioscience, Meriden, USA) and counted in a β counter. Results were obtained as counts per minute (cpm)."}, "[5]": {"conditions": "FIG. 32a cord 1, 10 ng/ml, 20 minutes, untreated 11, 13"}, "[6]": {"conditions": "FIG. 32a cord 1, 10 ng/ml, 30 minutes, untreated 11, 13"}, "[7]": {"conditions": "FIG. 32b cord 2, 10 ng/ml, 20 minutes, untreated 17"}, "[8]": {"conditions": "FIG. 32b cord 2, 10 ng/ml, 30 minutes, untreated 8"}}, "note": "Entries after “also recorded” stand apart in the source; their conditions may differ."}
{"compound": "AVTLENFLHWRR [ADOPep3, ADAM15 derived peptide]", "values": [{"measurement": "inhibition of binding of anti-GRP78 antibody to EC (in words)", "setting": "[1]", "value": "some degree of inhibition"}, {"measurement": "percent adjusted volume of phospho ERK band", "setting": "ERK½; [5]", "value": 11, "unit": "%"}, {"measurement": "percent adjusted volume of phospho ERK band", "setting": "ERK½; [6]", "value": 5, "unit": "%"}, {"measurement": "percent adjusted volume of phospho ERK band", "setting": "ERK½; [7]", "value": 7, "unit": "%"}, {"measurement": "percent adjusted volume of phospho ERK band", "setting": "ERK½; [8]", "value": 1, "unit": "%"}, {"measurement": "ERK½ phosphorylation (in words)", "setting": "ERK½", "value": "had not effect on ERK½ phosphorylation"}]}
{"compound": "[Cl][Co][Cl]", "note": "[CoCl2, Cobalt-Chloride, reference compound]", "values": [{"measurement": "level of apoptosis", "setting": "endothelial cells [2]", "value": "~67", "unit": "%"}]}
{"compound": "RYHLIPRGWDHS [sRoY, scrambled control peptide, reference compound]", "values": [{"measurement": "inhibition of binding of anti-GRP78 antibody to EC (in words)", "setting": "[1]", "value": "not effective; also recorded: no specific inhibition effect"}, {"measurement": "tube formation (length of the network of connected cells)", "setting": "endothelial cells [3]; listed as scrambled sROY", "value": "did not induced tube formation"}, {"measurement": "tube formation (length of the network of connected cells)", "setting": "endothelial cells [3]; listed as scrambled sROY peptide", "value": "no effect on tube formation"}]}
{"compound": "ENFLHWRRAHLL [ADOPep2, ADAM15 derived peptide]", "values": [{"measurement": "proliferation of endothelial cells", "setting": "[4]", "value": "capable of inducing proliferation of EC"}, {"measurement": "inhibition of binding of anti-GRP78 antibody to EC (in words)", "setting": "[1]", "value": "some degree of inhibition"}, {"measurement": "percent adjusted volume of phospho ERK band", "setting": "ERK½; [5]", "value": 11, "unit": "%"}, {"measurement": "percent adjusted volume of phospho ERK band", "setting": "ERK½; [6]", "value": 13, "unit": "%"}, {"measurement": "percent adjusted volume of phospho ERK band", "setting": "ERK½; [7]", "value": 19, "unit": "%"}, {"measurement": "percent adjusted volume of phospho ERK band", "setting": "ERK½; [8]", "value": 14, "unit": "%"}, {"measurement": "ERK½ phosphorylation (in words)", "setting": "ERK½", "value": "induced ERK½ phosphorylation; also recorded: increase in ERK½ phosphorylation"}]}
